# Assay results taken from ChEMBL document CHEMBL1201862, “PubChem BioAssay data set” (2004).
#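 Briefly, cells in 96-well plates were exposed to five compound concentrations for 48 h, and endpoints were estimated by linear interpolation. GI50 marks 50% less growth.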 Active and inactive are the calls of the source. Rule as the data show it: active = GI50 up to about 1.1 µM and inactive = higher.
# Assays:
# Assay in all cases: NCI tumour cell line growth inhibition, 48 h
# 786-0 = test system: 786-0
# A498 = test system: A498
# A549 = test system: A549
# ACHN = test system: ACHN
# BT-549 = test system: BT-549
# CAKI-1 = test system: CAKI-1
# CCRF-CEM = test system: CCRF-CEM
# COLO 205 = test system: COLO 205
# DU-145 = test system: DU-145
# EKVX = test system: EKVX
# HCT-116 = test system: HCT-116
# HCT-15 = test system: HCT-15
# HL-60 = test system: HL-60
# HOP-62 = test system: HOP-62
# HOP-92 = test system: HOP-92
# HT-29 = test system: HT-29
# Hs-578T = test system: Hs-578T
# IGROV-1 = test system: IGROV-1
# K562 = test system: K562
# LOX IMVI = test system: LOX IMVI
# M14 = test system: M14
# MCF7 = test system: MCF7
# MDA-MB-231 = test system: MDA-MB-231
# MDA-MB-435 = test system: MDA-MB-435
# MDA-N = test system: MDA-N
# MOLT-4 = test system: MOLT-4
# Malme-3M = test system: Malme-3M
# NCI-H226 = test system: NCI-H226
# NCI-H23 = test system: NCI-H23
# NCI-H522 = test system: NCI-H522
# NCI/ADR-RES = test system: NCI/ADR-RES
# OVCAR-3 = test system: OVCAR-3
# OVCAR-4 = test system: OVCAR-4
# OVCAR-5 = test system: OVCAR-5
# OVCAR-8 = test system: OVCAR-8
# PC-3 = test system: PC-3
# RPMI-8226 = test system: RPMI-8226
# RXF 393 = test system: RXF 393
# SF-268 = test system: SF-268
# SF-295 = test system: SF-295
# SF-539 = test system: SF-539
# SK-MEL-28 = test system: SK-MEL-28
# SK-MEL-2 = test system: SK-MEL-2
# SK-MEL-5 = test system: SK-MEL-5
# SK-OV-3 = test system: SK-OV-3
# SN12C = test system: SN12C
# SNB-19 = test system: SNB-19
# SNB-75 = test system: SNB-75
# SR = test system: SR
# T47D = test system: T47D
# TK-10 = test system: TK-10
# U-251 = test system: U-251
# UACC-257 = test system: UACC-257
# UACC-62 = test system: UACC-62
# UO-31 = test system: UO-31
# KM12 = test system: KM12
# NCI-H460 = test system: NCI-H460
# SW-620 = test system: SW-620
structure (smiles),measurement,setting,value
CN(C)/C=N/c1c2c(nc3ccccc13)CCCC2,GI50,786-0,> 100 µM (inactive)
same,GI50,A498,49.9 µM (inactive)
same,GI50,A549,57.9 µM (inactive)
same,GI50,ACHN,> 100 µM (inactive)
same,GI50,BT-549,> 100 µM (inactive)
same,GI50,CAKI-1,> 100 µM (inactive)
same,GI50,CCRF-CEM,44 µM (inactive)
same,GI50,COLO 205,70.8 µM (inactive)
same,GI50,DU-145,> 100 µM (inactive)
same,GI50,EKVX,> 100 µM (inactive)
same,GI50,HCT-116,39.1 µM (inactive)
same,GI50,HCT-15,> 100 µM
same,GI50,HL-60,31.1 µM (inactive)
same,GI50,HOP-62,> 100 µM (inactive)
same,GI50,HOP-92,33.1 µM (inactive)
same,GI50,HT-29,36.7 µM (inactive)
same,GI50,Hs-578T,> 100 µM (inactive)
same,GI50,IGROV-1,> 100 µM (inactive)
same,GI50,K562,32 µM (inactive)
same,GI50,LOX IMVI,91 µM (inactive)
same,GI50,M14,> 100 µM (inactive)
same,GI50,MCF7,72.9 µM (inactive)
same,GI50,MDA-MB-231,> 100 µM (inactive)
same,GI50,MDA-MB-435,> 100 µM (inactive)
same,GI50,MDA-N,61.7 µM (inactive)
same,GI50,MOLT-4,59.8 µM (inactive)
same,GI50,Malme-3M,> 100 µM (inactive)
same,GI50,NCI-H226,36 µM (inactive)
same,GI50,NCI-H23,50.7 µM (inactive)
same,GI50,NCI-H522,> 100 µM (inactive)
same,GI50,NCI/ADR-RES,37.3 µM (inactive)
same,GI50,OVCAR-3,38.6 µM (inactive)
same,GI50,OVCAR-4,75.2 µM (inactive)
same,GI50,OVCAR-5,> 100 µM (inactive)
same,GI50,OVCAR-8,50.1 µM (inactive)
same,GI50,PC-3,38.5 µM (inactive)
same,GI50,RPMI-8226,53.3 µM (inactive)
same,GI50,RXF 393,> 100 µM (inactive)
same,GI50,SF-268,> 100 µM (inactive)
same,GI50,SF-295,41.5 µM (inactive)
same,GI50,SF-539,96.4 µM (inactive)
same,GI50,SK-MEL-28,44.2 µM (inactive)
same,GI50,SK-MEL-2,> 100 µM (inactive)
same,GI50,SK-MEL-5,> 100 µM (inactive)
same,GI50,SK-OV-3,> 100 µM (inactive)
same,GI50,SN12C,> 100 µM (inactive)
same,GI50,SNB-19,> 100 µM (inactive)
same,GI50,SNB-75,93.8 µM (inactive)
same,GI50,SR,25.9 µM (inactive)
same,GI50,T47D,66.2 µM (inactive)
same,GI50,TK-10,> 100 µM (inactive)
same,GI50,U-251,> 100 µM (inactive)
same,GI50,UACC-257,71 µM (inactive)
same,GI50,UACC-62,> 100 µM (inactive)
same,GI50,UO-31,67.8 µM (inactive)
CC(=O)Nc1ncc2c(n1)-c1ccccc1OC2c1ccccc1 (centres undefined),GI50,786-0,12.4 µM (inactive)
same,GI50,A498,20.7 µM (inactive)
same,GI50,A549,> 100 µM (inactive)
same,GI50,ACHN,11 µM (inactive)
same,GI50,BT-549,27.7 µM (inactive)
same,GI50,CAKI-1,26.1 µM (inactive)
same,GI50,CCRF-CEM,> 100 µM (inactive)
same,GI50,COLO 205,> 100 µM (inactive)
same,GI50,DU-145,> 100 µM (inactive)
same,GI50,EKVX,61 µM (inactive)
same,GI50,HCT-116,80.9 µM (inactive)
same,GI50,HCT-15,> 100 µM
same,GI50,HL-60,> 100 µM (inactive)
same,GI50,HOP-92,14.8 µM (inactive)
same,GI50,HT-29,> 100 µM (inactive)
same,GI50,Hs-578T,6.89 µM (inactive)
same,GI50,IGROV-1,46.5 µM (inactive)
same,GI50,KM12,> 100 µM (inactive)
same,GI50,LOX IMVI,> 100 µM (inactive)
same,GI50,M14,> 100 µM (inactive)
same,GI50,MCF7,> 100 µM (inactive)
same,GI50,MDA-MB-231,21.7 µM (inactive)
same,GI50,MDA-MB-435,> 100 µM (inactive)
same,GI50,MDA-N,> 100 µM (inactive)
same,GI50,MOLT-4,> 100 µM (inactive)
same,GI50,NCI-H226,20.5 µM (inactive)
same,GI50,NCI-H23,26.1 µM (inactive)
same,GI50,NCI-H460,> 100 µM (inactive)
same,GI50,NCI-H522,37.7 µM (inactive)
same,GI50,NCI/ADR-RES,32.8 µM (inactive)
same,GI50,OVCAR-3,> 100 µM (inactive)
same,GI50,OVCAR-4,18.5 µM (inactive)
same,GI50,OVCAR-5,> 100 µM (inactive)
same,GI50,OVCAR-8,23.6 µM (inactive)
same,GI50,PC-3,> 100 µM (inactive)
same,GI50,RPMI-8226,> 100 µM (inactive)
same,GI50,RXF 393,17.1 µM (inactive)
same,GI50,SF-268,15.4 µM (inactive)
same,GI50,SF-295,32.2 µM (inactive)
same,GI50,SF-539,13.2 µM (inactive)
same,GI50,SK-MEL-2,71.8 µM (inactive)
same,GI50,SK-MEL-5,> 100 µM (inactive)
same,GI50,SK-OV-3,42.8 µM (inactive)
same,GI50,SN12C,87.9 µM (inactive)
same,GI50,SNB-19,20.8 µM (inactive)
same,GI50,SNB-75,14.1 µM (inactive)
same,GI50,SR,> 100 µM (inactive)
same,GI50,SW-620,> 100 µM (inactive)
same,GI50,T47D,24.7 µM (inactive)
same,GI50,TK-10,28.7 µM (inactive)
same,GI50,U-251,33.1 µM (inactive)
same,GI50,UACC-257,> 100 µM (inactive)
same,GI50,UACC-62,14.1 µM (inactive)
same,GI50,UO-31,> 100 µM (inactive)
